Read-outs that look alike come from different tables or passages of the source.
Key:
[1] = test system: peripheral blood leukocytes of model mice; conditions: for NE % (percentage of neutrophils in the total number of white blood cells) / WBC count: CTX model mice
Experimental: Sample: series of dithiolopyrrolone compounds were dissolved in 0.5% CMC—Na to be suspension after grinding with Tween (less than 4% usage).
Cyclophosphamide for Injection (CTX), Shanghai Hualian Pharmaceutical Co., Ltd., batch number: 050606, prepared of being dissolved in saline.
SAIGELI (G-CSF), Shanghai Sunway Biotech Co., Ltd., batch number: 051001
Animal blood analyzer, model: HEMAVET950 • 2. Method
40 BALB/c mice, were randomly divided into five groups, blank control group, positive control (G-CSF) group (22.5 ug/kg), and two dithiolopyrrolone derivatives groups (compounds 001 and 004, 20 mg/kg), CTX model group (100 mg/kg), respectively with 8 mice in each group. rThe blank control group wasn't treated in any way, the other four groups were treated with CTX intraperitoneal injection, 100 mg/kg, once a day. […] G-CSF group was given G-CSF (22.5 ug/kg) subcutaneously once a day, one day after the completing of the injection of CTX. Dithiolopyrrolone derivatives groups were administered with dithiolopyrrolone derivatives (20 mg/kg), through gavaging once a day (0.5 ml), one day after the completing of the injection of CTX. The mice of model group and blank control group were administered with an equivalent 0.5% CMC—Na solution through gavaging.
Blood specimens were collected according to conventional method via the mice orbital vein, on the 0, 4, 6, 8 day respectively, when the day of administering CTX is set as the first day, then the peripheral blood routine test was carried out, and the effect of series of dithiolopyrrolone compounds on peripheral blood leukocytes of normal mice was analyzed. • 3. Results

[2] = test system: bone marrow granulocyte series; assay: Bone marrow smear microscopic examination of CTX model mice; type: in vivo, BALB/c mice; conditions: bone marrow smear after treatment
[3] = test system: peripheral blood leukocytes of normal mice; assay: Effects on peripheral blood leukocytes of normal mice (peripheral blood routine test); type: in vivo; conditions: G-CSF 22.5 ug/kg sc once a day
Excerpt: Animal hematology analyzer, model: HEMAVET950 • 2. Method
The mice were divided into blank control group, positive control group and the dithiolopyrrolone series of compounds group, there are 10 mice in each group.

[4] = day 0 (before CTX 100 mg/kg ip x 3 days)
[5] = day 4, CTX 100 mg/kg ip days 1-3, compounds 20 mg/kg ig, G-CSF 22.5 ug/kg sc once a day from one day after CTX
[6] = day 6, CTX 100 mg/kg ip days 1-3, compounds 20 mg/kg ig, G-CSF 22.5 ug/kg sc once a day from one day after CTX
[7] = day 8, CTX 100 mg/kg ip days 1-3, compounds 20 mg/kg ig, G-CSF 22.5 ug/kg sc once a day from one day after CTX
[8] = day 0 (before administration), compounds 20 mg/kg ig once a day
[9] = day 3, compounds 20 mg/kg ig once a day
[10] = day 5, compounds 20 mg/kg ig once a day

O=P1(N(CCCl)CCCl)NCCCO1 (stereo not shown) [CTX, Cyclophosphamide, reference compound]
total number of white blood cells and percentage of neutrophils after CTX ([1]; CTX 100 mg/kg ip once a day, after three days of administration): significantly decreased
NE % (percentage of neutrophils in the total number of white blood cells) [1, 4]: 28.46%
WBC count [1, 4]: 5.88e+09 L⁻¹
NE % (percentage of neutrophils in the total number of white blood cells) [1, 5]: 3.33%
WBC count [1, 5]: 1.34e+09 L⁻¹
NE % (percentage of neutrophils in the total number of white blood cells) [1, 6]: 6.7%
WBC count [1, 6]: 1.2e+09 L⁻¹
NE % (percentage of neutrophils in the total number of white blood cells) [1, 7]: 38.32%
WBC count [1, 7]: 5.7e+09 L⁻¹
granulocyte series in bone marrow smear (microscopic examination) [2]: severely inhibited

COc1ccc(-n2c3cssc-3c(NC(=O)Oc3ccccc3)c2=O)c(OC)c1 [compound 001]
NE % (percentage of neutrophils in the total number of white blood cells) [1, 4]: 27.32%
WBC count [1, 4]: 5.98e+09 L⁻¹
NE % (percentage of neutrophils in the total number of white blood cells) [1, 5]: 2.48%
WBC count [1, 5]: 1.21e+09 L⁻¹
NE % (percentage of neutrophils in the total number of white blood cells) [1, 6]: 42.71%
WBC count [1, 6]: 2.75e+09 L⁻¹
NE % (percentage of neutrophils in the total number of white blood cells) [1, 7]: 76.84%
WBC count [1, 7]: 1.844e+10 L⁻¹
granulocyte series in bone marrow smear (microscopic examination) [2]: significant hyperplasia and speeding up of the differentiation and maturation
NE % (percentage of neutrophils in the total number of white blood cells) [3, 8]: 33.73%
WBC count [3, 8]: 7.89e+09 L⁻¹
NE % (percentage of neutrophils in the total number of white blood cells) [3, 9]: 67.44%
WBC count [3, 9]: 1.824e+10 L⁻¹
NE % (percentage of neutrophils in the total number of white blood cells) [3, 10]: 72.13%
WBC count [3, 10]: 2.496e+10 L⁻¹

CCOC(=O)Nc1c2sscc-2n(-c2ccc(OC)cc2OC)c1=O [compound 004]
NE % (percentage of neutrophils in the total number of white blood cells) [1, 4]: 18.65%
WBC count [1, 4]: 5.86e+09 L⁻¹
NE % (percentage of neutrophils in the total number of white blood cells) [1, 5]: 4.34%
WBC count [1, 5]: 1.11e+09 L⁻¹
NE % (percentage of neutrophils in the total number of white blood cells) [1, 6]: 36.47%
WBC count [1, 6]: 1.42e+09 L⁻¹
NE % (percentage of neutrophils in the total number of white blood cells) [1, 7]: 87.62%
WBC count [1, 7]: 1.528e+10 L⁻¹
granulocyte series in bone marrow smear (microscopic examination) [2]: significant hyperplasia and speeding up of the differentiation and maturation
NE % (percentage of neutrophils in the total number of white blood cells) [3, 8]: 31.56%
WBC count [3, 8]: 7.65e+09 L⁻¹
NE % (percentage of neutrophils in the total number of white blood cells) [3, 9]: 56.36%
WBC count [3, 9]: 1.336e+10 L⁻¹
NE % (percentage of neutrophils in the total number of white blood cells) [3, 10]: 78.24%
WBC count [3, 10]: 1.866e+10 L⁻¹

COc1ccc(-n2c3cssc-3c(NC(=O)Nc3ccccc3)c2=O)c(OC)c1 [compound 026]
NE % (percentage of neutrophils in the total number of white blood cells) [3, 8]: 28.98%
WBC count [3, 8]: 7.84e+09 L⁻¹
NE % (percentage of neutrophils in the total number of white blood cells) [3, 9]: 30.38%
WBC count [3, 9]: 8.76e+09 L⁻¹
NE % (percentage of neutrophils in the total number of white blood cells) [3, 10]: 38.63%
WBC count [3, 10]: 9.71e+09 L⁻¹

CCSC(=O)Nc1c2sscc-2n(-c2ccc(OC)cc2OC)c1=O [compound 027]
NE % (percentage of neutrophils in the total number of white blood cells) [3, 8]: 24.45%
WBC count [3, 8]: 8.76e+09 L⁻¹
NE % (percentage of neutrophils in the total number of white blood cells) [3, 9]: 45.46%
WBC count [3, 9]: 1.122e+10 L⁻¹
NE % (percentage of neutrophils in the total number of white blood cells) [3, 10]: 48.37%
WBC count [3, 10]: 1.254e+10 L⁻¹

B1: G-CSF: granulocyte colony-stimulating factor, SAIGELI, Shanghai Sunway Biotech Co., Ltd.; positive control (protein, UniProt P09919 31-207, looked up)
Granulocyte …: TPLGPASSLPQSFLLKCLEQVRKIQGDGAALQEKLVSECATYKLCHPEELVLLGHSLGIPWAPLSSCPSQALQLAGCLSQLHSGLFLYQGLLQALEGISPELGPTLDTLQLDVADFATTIWQQMEELGMAPALQPTQGAMPAFASAFQRRAGGVLVASHLQSFLEVSYRVLRHLAQP
NE % (percentage of neutrophils in the total number of white blood cells) [1, 4]: 30.34%
WBC count [1, 4]: 5.92e+09 L⁻¹
NE % (percentage of neutrophils in the total number of white blood cells) [1, 5]: 4.58%
WBC count [1, 5]: 1.14e+09 L⁻¹
NE % (percentage of neutrophils in the total number of white blood cells) [1, 6]: 30.07%
WBC count [1, 6]: 1.84e+09 L⁻¹
NE % (percentage of neutrophils in the total number of white blood cells) [1, 7]: 59.68%
WBC count [1, 7]: 1.54e+10 L⁻¹
granulocyte series in bone marrow smear (microscopic examination) [2]: significant hyperplasia and speeding up of the differentiation and maturation
NE % (percentage of neutrophils in the total number of white blood cells) [3, 8]: 25.39%
WBC count [3, 8]: 6.74e+09 L⁻¹
NE % (percentage of neutrophils in the total number of white blood cells) [3, 9]: 57.86%
WBC count [3, 9]: 1.748e+10 L⁻¹
NE % (percentage of neutrophils in the total number of white blood cells) [3, 10]: 60.68%
WBC count [3, 10]: 1.922e+10 L⁻¹

From patent US8258176B2, “Dithiolopyrrolone compounds, the preparation and the use thereof” (Shanghai Institute of Pharmaceutical Industry, priority 2007, dated 2012)
